pIC50: −log10 of the molar value.
Assays:
[1] = target: SARS-CoV-2 main protease Mpro (Severe acute respiratory syndrome coronavirus 2, UniProt P0DTD1); assay: FRET-based Mpro enzyme activity assay; assay type: biochemical; settings: recombinant Mpro, 30 min pre-incubation, 0 - 200 µM; read-out: Mpro enzyme inhibition IC50
in vitro = settings: human

COc1cccc2[nH]c(C(=O)N[C@@H](CC(C)C)C(=O)N[C@@H](CN3CCNC3=O)C(=O)C(=O)NCC3CC3)cc12 [Compound 10, N-((S)-1-(((S)-4-((Cyclopropylmethyl)Amino)-3,4-Dioxo-1-(2-Oxoimidazolidin-1-yl)Butan-2-yl)Amino)-4-Methyl-1-Oxopentan-2-yl)-4-Methoxy-1H-Indole-2-Carboxamide]
pIC50 [1]: ≥ 5.70
CC50 at 72 h (in vitro): > 100 µM

COc1cccc2[nH]c(C(=O)N[C@H](C(=O)N[C@@H](CN3CCNC3=O)C(=O)C(=O)Nc3ccccc3)C3CCCCC3)cc12 [Compound 25, N-((S)-1-cyclohexyl-2-(((S)-3,4-dioxo-1-(2-oxoimidazolidin-1-yl)-4-(phenylamino)butan-2-yl)amino)-2-oxoethyl)-4-methoxy-1H-indole-2-carboxamide]
pIC50 [1]: ≥ 5.70
CC50 at 72 h (in vitro): > 100 µM

CC(C)C[C@H](NC(=O)OC(C)(C)C)C(=O)N[C@@H](Cc1ccc[nH]c1=O)C(=O)C(=O)NCc1ccccc1 [Compound 27, tert-butyl ((S)-1-(((S)-4-(benzylamino)-3,4-dioxo-1-(2-oxo-1,2-dihydropyridin-3-yl)butan-2-yl)amino)-4-methyl-1-oxopentan-2-yl)carbamate]
pIC50 [1]: 4.70 to 5.70
CC50 at 72 h (in vitro): > 100 µM

CC(C)C[C@H](NC(=O)c1cc2ccccc2[nH]1)C(=O)N[C@@H](CN1CCNC1=O)C(O)C(=O)NCC1CC1 (stereo partly drawn) [Compound 26, N-((2S)-1-(((2S)-4-((cyclopropylmethyl)amino)-3-hydroxy-4-oxo-1-(2-oxoimidazolidin-1-yl)butan-2-yl)amino)-4-methyl-1-oxopentan-2-yl)-1H-indole-2-carboxamide]
pIC50 [1]: ≥ 5.70
CC50 at 72 h (in vitro): > 100 µM

CC(C)C[C@H](NC(=O)c1cc2ccccc2[nH]1)C(=O)N[C@@H](Cc1ccc[nH]c1=O)C(=O)C(=O)NCc1ccccc1 [Compound 22, N-((S)-1-(((S)-4-(Benzylamino)-3,4-Dioxo-1-(2-Oxo-1,2-Dihydropyridin-3-yl)Butan-2-yl)Amino)-4-Methyl-1-Oxopentan-2-yl)-1H-Indole-2-Carboxamide]
pIC50 [1]: ≥ 5.70
CC50 at 72 h (in vitro): > 100 µM

COc1cccc2[nH]c(C(=O)N[C@@H](CC3CC3)C(=O)N[C@@H](CN3CCNC3=O)C(=O)C(=O)NCC3CC3)cc12 [Compound 12, N-((S)-3-Cyclopropyl-1-(((S)-4-((cyclopropylmethyl)amino)-3,4-dioxo-1-(2-oxoimidazolidin-1-yl)butan-2-yl)amino)-1-oxopropan-2-yl)-4-methoxy-1H-indole-2-carboxamide]
pIC50 [1]: ≥ 5.70
CC50 at 72 h (in vitro): > 100 µM

CC(C)C[C@H](NC(=O)c1cc2ccccc2[nH]1)C(=O)N[C@@H](CN1CCNC1=O)C(=O)C(=O)NCC1CC1 [Compound 24, N-((S)-1-(((S)-4-((cyclopropylmethyl)amino)-3,4-dioxo-1-(2-oxoimidazolidin-1-yl)butan-2-yl)amino)-4-methyl-1-oxopentan-2-yl)-1H-indole-2-carboxamide]
pIC50 [1]: 4.70 to 5.70
CC50 at 72 h (in vitro): > 100 µM

CC(C)C[C@H](NC(=O)c1nc2ccccc2[nH]1)C(=O)N[C@@H](Cc1ccc[nH]c1=O)C(=O)C(=O)NCc1ccccc1 [Compound 23, N-((S)-1-(((S)-4-(benzylamino)-3,4-dioxo-1-(2-oxo-1,2-dihydropyridin-3-yl)butan-2-yl)amino)-4-methyl-1-oxopentan-2-yl)-1H-benzo[d]imidazole-2-carboxamide]
pIC50 [1]: ≥ 5.70
CC50 at 72 h (in vitro): > 100 µM
